Data as given in article PMC10380488, “Cx43 Hemichannel and Panx1 Channel Modulation by Gap19 and ^10Panx1 Peptides” (International Journal of Molecular Sciences, 2023).
Values joined by “and” are separate entries in the source; they are usually repeats but may differ in a detail not shown here. Equal entries are not always repeated. “Also recorded” adds a separate entry of the source.

Key:
[1] = target: T1, Panx1 channels (Rattus norvegicus, UniProt P60570); test: Whole-cell patch-clamp, unitary Panx1 channel current activity in C6-Panx1 cells; assay type: cell-based; conditions: for nominal open probability (NPo) of Panx1 channels: preincubated 45 min, C6-Panx1, step −30 to +70 mV, 30 s, mean ± SEM, control 0.37 ± 0.02; for reduction of NPo of Panx1 channels: vs control
T1 construct: expressed in transfected cells; host or cells: C6 glioma cells (C6-Panx1), gift of Dr Christian C; Naus
T1 sequence (P60570 whole entry): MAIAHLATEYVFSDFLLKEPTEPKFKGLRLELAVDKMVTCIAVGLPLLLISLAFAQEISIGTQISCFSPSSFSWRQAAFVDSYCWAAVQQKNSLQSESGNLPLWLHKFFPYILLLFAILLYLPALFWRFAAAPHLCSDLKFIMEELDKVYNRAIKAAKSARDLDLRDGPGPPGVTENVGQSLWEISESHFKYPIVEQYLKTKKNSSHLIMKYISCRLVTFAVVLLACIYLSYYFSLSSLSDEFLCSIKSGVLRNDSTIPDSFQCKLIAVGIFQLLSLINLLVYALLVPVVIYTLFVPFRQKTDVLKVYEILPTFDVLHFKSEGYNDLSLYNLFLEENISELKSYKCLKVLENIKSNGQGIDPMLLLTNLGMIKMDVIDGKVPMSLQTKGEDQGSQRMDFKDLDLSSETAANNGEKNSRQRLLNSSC
Description: (§1) We used HeLa cells stably transfected with Cx43 (HeLa-Cx43 [56]); endogenous expression of Panx1 is very low or absent in non-transfected HeLa cells. C6 glioma cells stably transfected with Panx1 (C6-Panx1, C-terminally myc-tagged; kind gift of Dr Christian C. Naus, University of British Columbia, Canada) were used for the Panx1 channel studies; Cx43 expression is low or undetectable [61] in these cells. HeLa cells were maintained in Dulbecco’s modified Eagle’s medium (DMEM; Invitrogen, Gent, Belgium), and C6 cells were grown in DMEM:Ham’s F12 (1:1—Invitrogen, Merelbeke, Belgium), all supplemented with 10% fetal bovine serum (FBS), 2 mM glutamine, 10 U/mL penicillin, 10 µg/mL streptomycin and 0.25 µg/mL fungizone. Stable exogenous expressions were maintained by supplementation of 1 and 3 µg/mL puromycin (Sigma-Aldrich, Bornem, Belgium) for HeLa-Cx43 and C6-Panx1 cells, respectively. Stable transfectants were subcultured into puromycin-free medium 2 days prior to experimentation. Cells were maintained at 37 °C and 10% (HeLa-Cx43) or 5% (C6-Panx1) CO2.
(§2) All experimental data were obtained with the patch-clamp technique in whole-cell recording mode on HeLa-Cx43 and C6-Panx1 cells. Extracellular solution was composed of the following (in mM): 150 NaCl, 4 CsCl, 2 CaCl2, 2 MgCl2, 2 pyruvic acid, 5 glucose and 5 HEPES at pH of 7.4, while the pipette solution consisted of the following (in mM): 125 CsCl, 10 sodium aspartate (NaAsp), 0.26 CaCl2, 1 MgCl2, 2 EGTA, 10 tetraethylammonium (TEA)-Cl and 5 HEPES at pH 7.2. The free Ca^2+ concentration of the pipette solution was estimated to be ~50 nM as calculated with WEBMAX (https://somapp.ucdmc.ucdavis.edu/pharmacology/bers/maxchelator/webmaxc/webmaxcS.htm; accessed on 20 September 2020). Whole-cell recording was performed under control conditions and in the presence of Gap19 or ^10Panx1. Gap19 was included in the pipette solution, while ^10Panx1 was added externally and preincubated for 45 min. Recordings were commenced 2 min after establishment of the whole-cell configuration. Currents were recorded with an EPC 7 PLUS patch-clamp amplifier (HEKA Elektronik, Germany). Unitary current activities were elicited by stepping the cells from a holding potential of −30 mV to a membrane potential (Vm) of +70 mV for 30 s. Data were digitized at 4 KHz using an NI USB-6221 data acquisition device (National Instruments, Austin, TX, USA) and WinWCP acquisition software designed by Dr. J. Dempster (University of Strathclyde, United Kingdom). Measured currents were filtered by a 7-pole Bessel low-pass filter at 1 KHz cut-off frequency. Transition analysis was performed as reported in [16]. Unitary channel conductances were determined from transition histograms as well as from all-point histograms and were obtained by fitting their frequencies to Gaussian distributions. Channel opening activity is expressed as nominal open probability NPo, denoting the number of active channels in the patch multiplied by the open probability.
(§3) Data were processed using Clampfit version 11.2 (Molecular Devices, San Jose, USA) and HemiGUI software as previously described. Results are expressed as mean ± SEM (unless otherwise stated), with n giving the number of traces, N the number of cells, and N the number of experiments on different cell culture dishes. Multiple groups were compared by one-way analysis of variance with post-hoc Dunnett’s or Bonferroni multiple comparison tests, making use of GraphPad PRISM 5.0 (GraphPad Software, Inc., La Jolla, CA). Results were considered statistically significant when p ≤ 0.05 (*; # for p ≤ 0.05, **; ## for p ≤ 0.01, ***; ### for p ≤ 0.001, and ****; #### for p ≤ 0.0001).

[2] = tested on: Cx43 HCs; test: Whole-cell patch-clamp, unitary Cx43 hemichannel current activity in HeLa-Cx43 cells; assay type: cell-based; conditions: for nominal open probability (NPo) of Cx43 HCs: preincubated 45 min, HeLa-Cx43, step −30 to +70 mV, 30 s, mean ± SEM, control 0.48 ± 0.02; for reduction of NPo of Cx43 HCs: vs control; for conductance γ of Cx43 HC, subconductance state, transition histogram / unitary conductance γ of Cx43 HC, fully open state, transition histogram: Figure 3B, mean ± SD
Description: as §1, §2, §3

[3] = tested on: Cx43 or Panx1 channels; conditions: 100 μM extracellular; HeLa cells expressing Cx43 or Panx1; cited from earlier work
Description: (§4) Connexins and pannexins are two ubiquitous but distinct protein families forming membrane hemichannels (HCs) and channels in the plasma membrane, respectively. They facilitate the exchange of ions and small molecules (MW ≤ 1.5 kDa) between the intracellular and the extracellular compartment upon opening. Among these respective families, connexin-43 (Cx43) and pannexin-1 (Panx1) are the most abundant isotypes in the human body expressed in a wide array of tissues. Panx1 and Cx43 have several common properties, including the following: (i) an analogous tetra-spanning transmembrane topology with ...

[4] = tested on: Cx46 HC; conditions: cited from earlier work
Description: as §4

[5] = target: T1, Panx1 channels; conditions: 200 µM extracellular; high extracellular K^+; cited from earlier work
Description: as §4

[6] = tested on: Panx1 channel; conditions: some evidence; cited from earlier work
Description: The representative traces depicted in Figure 1A (enlarged display in Supplementary Figure S1) show unitary Panx1 current activities evoked by repeated (every 40 s) Vm steps from a holding potential of −30 mV to +70 mV (with a duration of 30 s) in voltage-clamp experiments (using whole-cell patch-clamp recording). Under control conditions, a single channel conductance of ~65 pS was observed as determined from the channel transition histograms shown in Figure 1B, i.e., below the 100 pS range, which is typical for voltage-dependent Panx1 channel-opening activity. We tested the effec ...

[7] = 100 μM ^10Panx1 extracellular, N = 12, n = 88
[8] = 200 μM ^10Panx1 extracellular, N = 11, n = 97

WRQAAFVDSY [^10Panx1]
flickering frequency (fast-flickering closures) of Panx1 channel ([1]; 100 µM ^10Panx1 extracellular): 67 Hz | nominal open probability (NPo) of Panx1 channels ([1]; 100 μM ^10Panx1 extracellular, N = 11 cells, n = 106 traces): 0.28 ± 0.03 | reduction of NPo of Panx1 channels ([1]; 100 μM ^10Panx1 extracellular): 26.0% and ~ 25% | flickering frequency (fast-flickering closures) of Panx1 channel ([1]; 200 µM ^10Panx1 extracellular): 84 Hz | nominal open probability (NPo) of Panx1 channels ([1]; 200 μM ^10Panx1 extracellular, N = 12 cells, n = 116 traces): 0.19 ± 0.01 | reduction of NPo of Panx1 channels ([1]; 200 μM ^10Panx1 extracellular): 49.5% | flickering frequency (fast-flickering closures) of Panx1 channel ([1]; 500 µM ^10Panx1 extracellular): 146 Hz | nominal open probability (NPo) of Panx1 channels ([1]; 500 μM ^10Panx1 extracellular, N = 11 cells, n = 76 traces): 0.13 ± 0.02 | reduction of NPo of Panx1 channels ([1]; 500 μM ^10Panx1 extracellular): 66.0% | inhibition of Panx1 channel-opening activity (in words) ([1]; ^10Panx1 extracellular, 100, 200 and 500 µM): Concentration-Dependently Inhibited | effect on open-state events of Panx1, all-point histograms ([1]; ^10Panx1 extracellular, 100 and 200 μM, Figure 1C): clearly decreased the frequency of open-state events; also recorded: open-state peaks decreased in height while the closed-state peaks increased | subconductance gating of Panx1 channels ([1]; ^10Panx1 extracellular, Figure 1): did not induce the subconductance gating of Panx1 channels | nominal open probability (NPo) of Cx43 HCs ([2]; 100 μM ^10Panx1 extracellular, N = 12 cells, n = 88 traces): 0.30 ± 0.03 | reduction of NPo of Cx43 HCs ([2]; 100 μM ^10Panx1 extracellular, significant): 37% | nominal open probability (NPo) of Cx43 HCs ([2]; 200 μM ^10Panx1 extracellular, N = 11 cells, n = 97 traces): 0.08 ± 0.01 | reduction of NPo of Cx43 HCs ([2]; 200 μM ^10Panx1 extracellular): ~ 83% and 83% | nominal open probability (NPo) of Cx43 HCs ([2]; 500 μM ^10Panx1 extracellular, N = 8 cells, n = 53 traces): 0.03 ± 0.01 | reduction of NPo of Cx43 HCs ([2]; 500 μM ^10Panx1 extracellular): 94% | conductance γ of Cx43 HC, subconductance state, transition histogram [2, 7]: 81 ± 29 pS | unitary conductance γ of Cx43 HC, fully open state, transition histogram [2, 7]: 202 ± 57 pS | conductance γ of Cx43 HC, subconductance state, transition histogram [2, 8]: 78 ± 27 pS | unitary conductance γ of Cx43 HC, fully open state, transition histogram [2, 8]: 216 ± 74 pS | conductance γ of Cx43 HC, all-point histogram ([2]; Figure 3C, 100 μM ^10Panx1 extracellular): 201 ± 36 pS | inhibition of Cx43 HC opening activity (in words) ([2]; Gap19 intracellular / ^10Panx1 extracellular, 100-500 μM (Gap19 100–200 μM)): Inhibited; also recorded: concentration-dependent and significant inhibition; also recorded: inhibits Cx43 HCs over the 100–500 µM concentration range | effect on Cx43 HC gating (fully open state vs subconductance state) ([2]; Gap19 intracellular / ^10Panx1 extracellular, from 100 µM): increasing the frequency of subconductance transitions while decreasing the frequency of transitions to the fully open state; also recorded: reduced the propensity of gating to the main open state but increased the incidence of gating to the HC subconductance state | relative reduction of Cx43 HC function vs Panx1 channel function (selectivity) ([2]; ^10Panx1 extracellular, all the concentrations tested (100, 200, 500 μM)): more strongly reduces Cx43 HC function than Panx1 channel function at all the concentrations tested | selectivity for Cx43 or Panx1 channels [3]: good selectivity | effect on Cx46 HC peak currents [4]: partially inhibit Cx46 HC peak currents | effect on ATP release from Panx1-overexpressing cells [5]: inhibits ATP release | interaction with the pore of the channel protein [6]: some evidence pointing to an interaction with the pore of the channel protein
